# ChEMBL document CHEMBL6096672, “In Silico Enabled Discovery of KAI-11101, a Preclinical DLK Inhibitor for the Treatment of Neurodegenerative Disease and Neuronal Injury” (J Med Chem, 2025)
# Assays:
# [1] = Inhibition of GST-tagged DLK (1 to 520 residues)(unknown origin) using MKK4 as substrate preincubated for 60 mins followed by substrate/ATP addition measured after 30 mins by HTRF assay; design: species or system Homo sapiens
# [2] = Inhibition of human DLK transfected in HEK293-T-REx cells assessed as decrease in JNK phosphorylation incubated for 5 hrs by HTRF assay; assay type: cell-based
# [3] = molecular target: CYP3A4 (Homo sapiens, UniProt P08684); experiment: Time dependent inhibition of CYP3A4 (unknown origin) at 30 uM incubated for 30 mins relative to control; assay type: ADME; details: read-out: TDI
# CYP3A4, sequence (P08684 whole entry): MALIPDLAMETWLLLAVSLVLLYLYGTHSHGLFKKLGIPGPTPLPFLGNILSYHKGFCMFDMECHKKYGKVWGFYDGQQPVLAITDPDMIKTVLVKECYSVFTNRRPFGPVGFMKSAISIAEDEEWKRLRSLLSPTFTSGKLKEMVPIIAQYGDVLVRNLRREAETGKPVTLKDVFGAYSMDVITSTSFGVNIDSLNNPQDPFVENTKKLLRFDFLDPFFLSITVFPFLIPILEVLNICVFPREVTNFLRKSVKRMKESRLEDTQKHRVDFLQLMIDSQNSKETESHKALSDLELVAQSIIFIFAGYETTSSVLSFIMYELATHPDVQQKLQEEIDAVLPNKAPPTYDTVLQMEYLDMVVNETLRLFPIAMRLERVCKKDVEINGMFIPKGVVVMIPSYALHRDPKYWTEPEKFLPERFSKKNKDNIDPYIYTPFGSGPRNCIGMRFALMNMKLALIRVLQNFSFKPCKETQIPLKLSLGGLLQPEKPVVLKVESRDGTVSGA
# [4] = Energy of neutralization, pKa of compound; assay type: physicochemical
# [5] = molecular target: Voltage-gated inwardly rectifying potassium channel KCNH2 (Homo sapiens, UniProt Q12809); experiment: Inhibition of hERG by patch-clamp method; assay type: toxicity
# Voltage-gated inwardly rectifying potassium channel KCNH2, sequence (Q12809 whole entry): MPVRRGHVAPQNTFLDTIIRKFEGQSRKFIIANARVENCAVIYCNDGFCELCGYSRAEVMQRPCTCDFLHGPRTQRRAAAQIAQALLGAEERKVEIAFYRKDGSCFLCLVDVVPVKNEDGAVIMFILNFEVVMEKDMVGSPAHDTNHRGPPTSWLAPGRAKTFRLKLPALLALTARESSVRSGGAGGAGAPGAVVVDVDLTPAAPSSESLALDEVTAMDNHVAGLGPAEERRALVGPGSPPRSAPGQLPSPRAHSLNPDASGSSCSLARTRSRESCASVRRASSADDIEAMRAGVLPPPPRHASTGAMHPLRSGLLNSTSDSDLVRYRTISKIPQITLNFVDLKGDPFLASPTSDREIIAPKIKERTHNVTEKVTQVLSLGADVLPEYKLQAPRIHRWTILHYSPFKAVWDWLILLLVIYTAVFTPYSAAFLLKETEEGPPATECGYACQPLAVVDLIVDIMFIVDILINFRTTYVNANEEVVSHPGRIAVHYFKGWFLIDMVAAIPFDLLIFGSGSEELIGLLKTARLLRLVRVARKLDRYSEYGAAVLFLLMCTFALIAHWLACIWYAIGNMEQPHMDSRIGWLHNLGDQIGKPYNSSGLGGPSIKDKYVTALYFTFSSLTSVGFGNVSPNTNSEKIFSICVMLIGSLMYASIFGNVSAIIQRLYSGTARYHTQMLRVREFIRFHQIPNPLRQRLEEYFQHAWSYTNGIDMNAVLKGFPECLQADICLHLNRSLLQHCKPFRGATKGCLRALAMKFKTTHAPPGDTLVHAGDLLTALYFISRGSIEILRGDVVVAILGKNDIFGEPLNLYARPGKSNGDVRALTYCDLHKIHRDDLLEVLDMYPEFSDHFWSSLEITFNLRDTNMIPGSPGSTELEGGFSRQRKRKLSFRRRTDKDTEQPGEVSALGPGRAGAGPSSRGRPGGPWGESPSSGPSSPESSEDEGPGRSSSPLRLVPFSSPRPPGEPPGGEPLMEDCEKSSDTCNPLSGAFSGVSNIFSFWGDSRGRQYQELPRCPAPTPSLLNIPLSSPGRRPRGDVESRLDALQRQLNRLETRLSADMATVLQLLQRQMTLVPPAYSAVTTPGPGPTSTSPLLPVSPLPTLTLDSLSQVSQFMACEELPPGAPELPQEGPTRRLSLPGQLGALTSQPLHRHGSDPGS
# [6] = Ratio of unbound drug concentration in brain to plasma of mouse at 5 mg/kg; assay type: ADME, organism-based; details: brain and plasma, read-out: K(p,uu,brain)
# [7] = Kinetic solubility of compound at pH 6.8; assay type: physicochemical; details: buffer, read-out: Kinetic_solubility
# [8] = Intrinsic clearance in mouse liver microsomes; assay type: ADME, Microsome; details: read-out: CLH
# [9] = Intrinsic clearance in human liver microsomes; assay type: ADME, Microsome; details: read-out: CLH
# [10] = Apparent permeability across apical to basal side in MDCK-MDR1 cells; assay type: ADME, cell-based, Canis lupus familiaris; details: dog
# [11] = Efflux ratio in MDCK-MDR1 cells; assay type: ADME, cell-based, Canis lupus familiaris; details: dog
SMILES,Ki [1],IC50 [2],other results
CN1CCOC[C@H]1c1ccc2c(-c3cnc(N)c(OC(F)(F)F)c3)nc(C(F)(F)F)n2c1,3.5 nM,300 nM,"inhibition at 0.5 h, 30 µM [3]: 33%"
Nc1ncc(-c2n[nH]c3cnccc23)cc1C(F)(F)F,149 nM,–,–
CCc1nc(-c2cnc(N)c(C(F)(F)F)c2)c2ccc(C3(F)CCN(C)CC3)cn12,0.6 nM,40 nM,pKa [4]: 8.4; IC50 [5]: 600 nM
CCc1nc(-c2cnc(N)c(OC(F)(F)F)c2)c2cc(Cl)c([C@H]3COCCN3C)cn12,7.1 nM,450 nM,"inhibition at 0.5 h, 30 µM [3]: 67%"
CCn1nc(-c2cnc(N)c(OC(F)F)c2)c2ccn([C@H]3CCOC[C@H]3OC3CC3)c(=O)c21,0.58 nM,32 nM,Kp uu [6]: 0.15
CCn1nc(-c2cnc(N)c(C(F)(F)F)c2)c2ccn([C@@H]3CCOC[C@@H]3OC3CC3)c(=O)c21,1.8 nM,180 nM,Kp uu [6]: 0.24
Nc1ncc(-c2cn(C3CCC3)c3cccnc23)cc1C(F)(F)F,194 nM,–,–
Nc1ncc(-c2cc3cn[nH]c3cn2)cc1C(F)(F)F,421 nM,–,–
CN1CCC(c2ccc3c(-c4cnc(N)c(C(F)(F)F)c4)nc(C(F)(F)F)n3c2)CC1,2.1 nM,94 nM,solubility kinetic [7]: 76 µM
CC(C)c1ccc2c(-c3cnc(N)c(C(F)(F)F)c3)ncn2c1,9.2 nM,490 nM,solubility kinetic [7]: 10 µM
CC(C)c1n[nH]c2cnc(-c3cnc(N)c(C(F)(F)F)c3)cc12,79 nM,–,–
CC(C)n1cc(-c2cnc(N)c(C(F)(F)F)c2)c2nc(C3CC3)ccc21,27 nM,–,–
CCc1nc(-c2cnc(N)c(OC(F)(F)F)c2)c2ccc([C@H]3CC(=O)N(C)C3)cn12,0.77 nM,70 nM,"inhibition at 0.5 h, 30 µM [3]: 81%"
CCn1nc(-c2cnc(N)c(OC(F)(F)F)c2)c2ccn([C@@H]3CCOC3)c(=O)c21,7.7 nM,120 nM,microsomal CLint [8]: 33 µL/min/mg; microsomal CLint [9]: 22 µL/min/mg
CCn1nc(-c2cnc(N)c(OC(F)(F)F)c2)c2ccc([C@H]3COCCN3C)nc21,2.4 nM,94 nM,"inhibition at 0.5 h, 30 µM [3]: 14%"
CO[C@H](C)c1nc(-c2cnc(N)c(C(F)(F)F)c2)c2ccc(C3CCN(C)CC3)cn12,1.2 nM,54 nM,IC50 [5]: 1300 nM
CN1CCCC[C@H]1c1ccc2c(-c3cnc(N)c(C(F)(F)F)c3)ncn2c1,4.3 nM,90 nM,solubility kinetic [7]: 73 µM; pKa [4]: 8.1; IC50 [5]: 1100 nM
CN1CCC(c2ccc3c(-c4cnc(N)c(C(F)(F)F)c4)ncn3c2)CC1,1.5 nM,128 nM,solubility kinetic [7]: 80 µM
CN1CCC(c2ccc3c(-c4cnc(N)c(C(F)(F)F)c4)nc(C#N)n3c2)CC1,4.8 nM,162 nM,–
CCn1nc(-c2cnc(N)c(OC(F)F)c2)c2ccn([C@H]3CCOC[C@H]3OC3CCC3)c(=O)c21,0.65 nM,35 nM,–
CCc1nc(-c2cnc(N)c(C(F)(F)F)c2)c2ccc(C3COC3)cn12,1 nM,–,–
CCc1nc(-c2cnc(N)c(OC(F)(F)F)c2)c2ccc(C3CCOCC3)nn12,1.6 nM,84 nM,"inhibition at 0.5 h, 30 µM [3]: 78%"
CCn1nc(-c2cnc(N)c(OC(F)(F)F)c2)c2ccn(C3CCN(C4COC4)CC3)c(=O)c21,3 nM,130 nM,microsomal CLint [8]: 8.3 µL/min/mg; microsomal CLint [9]: 7.9 µL/min/mg; Kp uu [6]: 0.15
CCn1nc(-c2cnc(N)c(OC(F)(F)F)c2)c2ccn(C3COC3)c(=O)c21,10.5 nM,440 nM,microsomal CLint [8]: 24 µL/min/mg; microsomal CLint [9]: 9.2 µL/min/mg; Kp uu [6]: 0.5

SMILES,Ki [1],IC50 [2],other results
CCc1nc(-c2cnc(N)c(C(F)(F)F)c2)c2ccc(CN3CCOCC3)cn12,4.6 nM,242 nM,pKa [4]: 6.1; IC50 [5]: 2500 nM
Nc1ncc(-c2cc3cn[nH]c3c(C3CC3)n2)cc1C(F)(F)F,59 nM,–,–
CCn1nc(-c2cnc(N)c(OC(F)(F)F)c2)c2ccn([C@@H](C)C3CC3)c(=O)c21,1.5 nM,110 nM,microsomal CLint [8]: 10 µL/min/mg; microsomal CLint [9]: < 4 µL/min/mg; Kp uu [6]: 0.38
Nc1ncc(-c2ncn3ccccc23)cc1C(F)(F)F,63 nM,–,–
CCc1nc(-c2cnc(N)c(C(F)(F)F)c2)c2ccc([C@H]3CN(C)CCO3)cn12,2.5 nM,100 nM,pKa [4]: 6.8; IC50 [5]: 6900 nM
CCn1nc(-c2cnc(N)c(OC(F)(F)F)c2)c2ccn([C@@H]3CCCOCC3)c(=O)c21,1.3 nM,140 nM,microsomal CLint [8]: 25 µL/min/mg; microsomal CLint [9]: 18 µL/min/mg; Kp uu [6]: 0.29
CCc1nc(-c2cnc(N)c(OC(F)(F)F)c2)c2ccc([C@H]3COCC4(CC4)N3C)cn12,1.2 nM,104 nM,"IC50 [5]: 30000 nM; inhibition at 0.5 h, 30 µM [3]: 67%"
CCn1nc(-c2cnc(N)c(OC(F)(F)F)c2)c2ccn(C3CCN(C)CC3)c(=O)c21,2.5 nM,130 nM,microsomal CLint [8]: 4 µL/min/mg; microsomal CLint [9]: < 3 µL/min/mg; Kp uu [6]: 0.38
Nc1ncc(-c2ccc3ncsc3n2)cc1C(F)(F)F,416 nM,–,–
CCc1nc(-c2cnc(N)c(OC(F)(F)F)c2)c2ccc(C3(N4CCOCC4)CC3)cn12,0.7 nM,31 nM,pKa [4]: 5.1; IC50 [5]: 17000 nM
Nc1ncc(-c2ncn3cc(C4CCN(C5COC5)CC4)ccc23)cc1C(F)(F)F,3.2 nM,134 nM,solubility kinetic [7]: 6 µM
CCn1nc(-c2cnc(N)c(OC(F)F)c2)c2ccn([C@H]3CCOC[C@H]3OC(F)(F)F)c(=O)c21,0.92 nM,46 nM,Kp uu [6]: 0.5
CN1CCC(c2ccc3c(-c4cnc(N)c(C(F)(F)F)c4)nc([C@@H]4CCCO4)n3c2)CC1,0.7 nM,22 nM,IC50 [5]: 800 nM
CCn1nc(-c2cnc(N)c(OC(F)(F)F)c2)c2ccn([C@@H]3CCOC[C@H]3OC)c(=O)c21,1.9 nM,85 nM,microsomal CLint [8]: 24 µL/min/mg; microsomal CLint [9]: 9.3 µL/min/mg; Kp uu [6]: 0.43
CCn1nc(-c2cnc(N)c(OC(F)(F)F)c2)c2ccc([C@H]3COCCN3C)cc21,1.2 nM,103 nM,"Papp A→B [10]: 24.1 ×10⁻⁶ cm/s; efflux ratio [11]: 0.4; Kp uu [6]: 0.42; inhibition at 0.5 h, 30 µM [3]: 15%"
CCc1nc(-c2cnc(N)c(OC(F)(F)F)c2)c2cc(C)c([C@H]3COCCN3C)cn12,5.3 nM,290 nM,"inhibition at 0.5 h, 30 µM [3]: 70%"
CCc1nc(-c2cnc(N)c(OC(F)(F)F)c2)c2ccc([C@H]3COCC(=O)N3C)cn12,0.26 nM,33 nM,"inhibition at 0.5 h, 30 µM [3]: 65%"
CCc1nc(-c2cnc(N)c(OC(F)(F)F)c2)c2ccc([C@@]3(C)COCCN3C)cn12,0.47 nM,29 nM,"inhibition at 0.5 h, 30 µM [3]: 62%"
Nc1ncc(-c2n[nH]c3ccsc23)cc1C(F)(F)F,72.4 nM,–,–
CN1CCC(Cc2ccc3c(-c4cnc(N)c(C(F)(F)F)c4)ncn3c2)CC1,4.5 nM,405 nM,solubility kinetic [7]: 68 µM
CCc1nc(-c2cnc(N)c(OC(F)(F)F)c2)c2ccn(C3CCOCC3)c(=O)n12,2 nM,190 nM,"inhibition at 0.5 h, 30 µM [3]: 87%"
Nc1ncc(-c2c[nH]c3cccnc23)cc1C(F)(F)F,194 nM,–,–
Nc1ncc(-c2nn(C3CC3)c3c(=O)n(C4CCOCC4)ccc23)cc1OC(F)(F)F,3.4 nM,104 nM,microsomal CLint [8]: 17 µL/min/mg; microsomal CLint [9]: 13 µL/min/mg; Kp uu [6]: 0.31
